{"source": "ChEMBL document CHEMBL5055668", "about": "(J Med Chem, 2021)", "key": {"[1]": {"system": "Mus musculus", "assay": "Toxicity in C57BL/6 mouse allografted with mouse MC38 cells assessed as kidney damage at 5 to 20 mg/kg, po administered every day for 2 weeks by histopathological analysis", "assay_type": "organism-based, MC-38", "details": "in vivo, 336 h, dose 5-20 mg/kg"}, "[2]": {"system": "BMDM", "assay": "(§1) Induction of conversion of M2-macrophages to the M1 phenotype in CM of MC38 cells treated C57BL/6 mouse BMDM cells assessed as upregulation of Tnf mRNA expression at 30 to 100 nM preincubated with culture medium of MC38 cells for 24 hrs followed by compound addition and measured after 24 hrs by qPCR analysis", "assay_type": "functional, cell-based", "details": "dose 30-100 nM"}, "[3]": {"system": "MC-38", "assay": "Antitumor activity against mouse MC38 cells allografted in C57BL6 mouse assessed as decrease in Retnla mRNA expression at 10 to 20 mg/kg, po administered daily for 2 weeks by qPCR analysis", "assay_type": "functional, organism-based", "details": "dose 10-20 mg/kg"}, "[4]": {"system": "Mus musculus", "assay": "Toxicity in C57BL/6 mouse allografted with mouse MC38 cells assessed as heart damage at 5 to 20 mg/kg, po administered every day for 2 weeks by histopathological analysis", "assay_type": "organism-based, MC-38", "details": "in vivo, 336 h, dose 5-20 mg/kg"}, "[5]": {"system": "MC-38", "assay": "Antitumor activity against mouse MC38 cells allografted in C57BL6 mouse assessed as reduction in CSF-1R phosphorylation in tumor tissue at 5 to 10 mg/kg, po administered daily for 2 weeks by Western blot analysis", "assay_type": "functional, organism-based", "details": "dose 5-10 mg/kg"}, "[6]": {"biological_target": "T1, Macrophage colony-stimulating factor 1 receptor (Mus musculus) (UniProt P09581)", "T1 sequence (whole entry)": "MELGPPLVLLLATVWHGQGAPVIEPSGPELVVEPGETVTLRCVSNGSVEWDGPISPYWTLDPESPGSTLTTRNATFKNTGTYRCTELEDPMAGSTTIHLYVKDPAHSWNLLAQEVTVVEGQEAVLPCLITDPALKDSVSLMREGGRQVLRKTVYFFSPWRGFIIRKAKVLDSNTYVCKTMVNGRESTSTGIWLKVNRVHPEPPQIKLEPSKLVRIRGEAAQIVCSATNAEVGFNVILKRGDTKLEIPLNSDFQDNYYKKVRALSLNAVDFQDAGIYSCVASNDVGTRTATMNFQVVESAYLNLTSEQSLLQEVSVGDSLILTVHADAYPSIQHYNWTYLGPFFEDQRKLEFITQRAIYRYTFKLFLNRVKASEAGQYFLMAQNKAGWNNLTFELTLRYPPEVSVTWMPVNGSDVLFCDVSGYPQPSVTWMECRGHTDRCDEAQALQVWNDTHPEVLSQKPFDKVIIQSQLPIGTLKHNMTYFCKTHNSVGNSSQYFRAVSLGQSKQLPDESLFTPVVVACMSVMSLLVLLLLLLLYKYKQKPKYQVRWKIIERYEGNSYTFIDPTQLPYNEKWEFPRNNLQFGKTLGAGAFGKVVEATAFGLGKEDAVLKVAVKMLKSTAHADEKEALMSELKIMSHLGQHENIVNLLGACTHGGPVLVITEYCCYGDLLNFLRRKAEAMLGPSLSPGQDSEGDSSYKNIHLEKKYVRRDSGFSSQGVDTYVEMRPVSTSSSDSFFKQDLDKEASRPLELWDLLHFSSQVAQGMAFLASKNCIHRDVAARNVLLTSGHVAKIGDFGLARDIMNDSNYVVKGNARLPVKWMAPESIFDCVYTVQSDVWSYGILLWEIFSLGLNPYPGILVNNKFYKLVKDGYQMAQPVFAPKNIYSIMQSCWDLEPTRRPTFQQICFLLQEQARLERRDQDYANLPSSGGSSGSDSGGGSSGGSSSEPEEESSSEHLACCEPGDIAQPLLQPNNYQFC", "assay": "Inhibition of CSF-1R signaling pathway in C57BL/6 mouse BMDM cells assessed as reduction in M-CSF induced CSF-1R phosphorylation at 100 nM preincubated for 12 hrs followed by M-CSF stimulation for 30 mins by Western blot analysis", "assay_type": "cell-based"}, "[7]": {"system": "BMDM", "assay": "as §1, with “Il12” for “Tnf”", "assay_type": "functional, cell-based", "details": "dose 30-100 nM"}, "[8]": {"system": "MC-38", "assay": "Antitumor activity against mouse MC38 cells allografted in macrophage depleted C57BL6 mouse at 20 mg/kg, po administered daily for 2 weeks", "assay_type": "functional, organism-based"}, "[9]": {"system": "MC-38", "assay": "Antitumor activity against mouse MC38 cells allografted in C57BL6 mouse assessed as increase in Tnf mRNA expression at 10 to 20 mg/kg, po administered daily for 2 weeks by qPCR analysis", "assay_type": "functional, organism-based", "details": "dose 10-20 mg/kg"}, "[10]": {"system": "MC-38", "assay": "Antitumor activity against mouse MC38 cells allografted in po dosed C57BL6 mouse assessed as inhibition of tumor growth administered daily for 2 weeks by caliper method", "assay_type": "functional, organism-based", "details": "dose 5-20 mg/kg"}, "[11]": {"system": "MC-38", "assay": "Antiproliferative activity against mouse MC38 cells assessed as reduction in cell viability at 10 to 100 nM incubated for 24 hrs by CCK-8 assay", "assay_type": "functional, cell-based", "details": "dose 10-100 nM"}, "[12]": {"system": "MC-38", "assay": "Antitumor activity against mouse MC38 cells allografted in C57BL6 mouse assessed as reduction in AKT phosphorylation in tumor tissue at 5 to 10 mg/kg, po administered daily for 2 weeks by Western blot analysis", "assay_type": "functional, organism-based", "details": "dose 5-10 mg/kg"}, "[13]": {"system": "Mus musculus", "assay": "Toxicity in C57BL/6 mouse allografted with mouse MC38 cells assessed as liver damage at 5 to 20 mg/kg, po administered every day for 2 weeks by histopathological analysis", "assay_type": "organism-based, MC-38", "details": "in vivo, 336 h, dose 5-20 mg/kg"}, "[14]": {"system": "THP-1", "assay": "Induction of conversion of M2-macrophages to the M1 phenotype in CM of HCT116 cells treated […]-differentiated human THP-1 cells assessed as down regulation of Il10 mRNA expression at 30 to 100 nM incubated for 24 hrs by qPCR analysis", "assay_type": "functional, cell-based", "details": "dose 30-100 nM"}, "[15]": {"system": "MC-38", "assay": "Antitumor activity against mouse MC38 cells allografted in C57BL6 mouse assessed as decrease in Il10 mRNA expression at 10 to 20 mg/kg, po administered daily for 2 weeks by qPCR analysis", "assay_type": "functional, organism-based", "details": "dose 10-20 mg/kg"}, "[16]": {"system": "HCT-116", "assay": "Antiproliferative activity against human HCT116 cells cultured with culture medium of M2-macrophages assessed as reduction in cell viability at 10 to 100 nM incubated for 24 hrs by CCK-8 assay", "assay_type": "functional, cell-based", "details": "dose 10-100 nM"}, "[17]": {"system": "MC-38", "assay": "Induction of conversion of M2-macrophages to the M1 phenotype in CM of MC38 cells treated C57BL/6 mouse BMDM cells transfected with CSF1R shRNA2 assessed as decrease in Nos2 mRNA expression measured after 24 hrs by qPCR analysis", "assay_type": "functional, cell-based"}, "[18]": {"system": "BMDM", "assay": "as §1, with “down regulation” for “upregulation”, “Retnla” for “Tnf”", "assay_type": "functional, cell-based", "details": "dose 30-100 nM"}, "[19]": {"system": "BMDM", "assay": "as §1, with “down regulation” for “upregulation”, “Chil3” for “Tnf”", "assay_type": "functional, cell-based", "details": "dose 30-100 nM"}, "[20]": {"system": "THP-1", "assay": "Induction of conversion of M2-macrophages to the M1 phenotype in CM of HCT116 cells treated […]-differentiated human THP-1 cells assessed as upregulation of Il6 mRNA expression at 30 to 100 nM incubated for 24 hrs by qPCR analysis", "assay_type": "functional, cell-based", "details": "dose 30-100 nM"}, "[21]": {"system": "MC-38", "assay": "Antitumor activity against mouse MC38 cells allografted in C57BL6 mouse assessed as increase in Il12 mRNA expression at 10 to 20 mg/kg, po administered daily for 2 weeks by qPCR analysis", "assay_type": "functional, organism-based", "details": "dose 10-20 mg/kg"}}, "note": "Active and inactive are the calls of the source. The rule behind the calls is not given here.", "data": [{"molecule": "Cc1[nH]c(/C=C2\\C(=O)Nc3cc(NC(=O)Nc4cc(C(C)(C)C)on4)ccc32)c(C)c1NC(=O)CN1CCN(C)CC1", "values": [{"measurement": "Activity", "setting": "[1]", "result": "Non-Toxic"}, {"measurement": "Activity", "setting": "[2]", "result": "Active"}, {"measurement": "Activity", "setting": "[3]", "result": "Active"}, {"measurement": "Activity", "setting": "[4]", "result": "Non-Toxic"}, {"measurement": "Activity", "setting": "[5]", "result": "Active"}, {"measurement": "inhibition", "setting": "[6]", "result": "Active"}, {"measurement": "Activity", "setting": "[7]", "result": "Active"}, {"measurement": "Activity", "setting": "[8]", "result": "inactive"}, {"measurement": "Activity", "setting": "[9]", "result": "Active"}, {"measurement": "Activity", "setting": "[10]", "result": "Dose-dependent effect"}, {"measurement": "Activity", "setting": "[11]", "result": "inactive"}, {"measurement": "Activity", "setting": "[12]", "result": "Active"}, {"measurement": "Activity", "setting": "[13]", "result": "Non-Toxic"}, {"measurement": "Activity", "setting": "[14]", "result": "Active"}, {"measurement": "Activity", "setting": "[15]", "result": "Active"}, {"measurement": "Activity", "setting": "[16]", "result": "Active"}, {"measurement": "Activity", "setting": "[17]", "result": "Active"}, {"measurement": "Activity", "setting": "[18]", "result": "Active"}, {"measurement": "Activity", "setting": "[19]", "result": "Active"}, {"measurement": "Activity", "setting": "[20]", "result": "Active"}, {"measurement": "Activity", "setting": "[21]", "result": "Active"}]}]}
